Patent US10508120B2, “TYK2 inhibitors and uses thereof” (Nimbus Lakshmi, Inc., priority 2017, dated 2019)

Key:
JAK2 kinase domain (JH1) = JAK2 kinase domain (JH1) (Homo sapiens (Human), UniProt O60674); assay: JAK2 Radioactive Kinase Assay; type: biochemical; conditions: compound at 10 μM; ATP 10 μM; read-out: JAK2 JH1% Inhibition @ 10 μM
In short: (§1)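 Single-point screen: 10 μM test compound, radioactive kinase read-out, percent inhibition reported for each kinase domain.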

[1] = target: human TYK2 (JH2domain-pseudokinase) (Homo sapiens (Human), UniProt P29597); assay: TYK2 JH2 Domain Binding Assay (KINOMEscan)
Chain of human TYK2 (JH2domain-pseudokinase) (P29597 556-888): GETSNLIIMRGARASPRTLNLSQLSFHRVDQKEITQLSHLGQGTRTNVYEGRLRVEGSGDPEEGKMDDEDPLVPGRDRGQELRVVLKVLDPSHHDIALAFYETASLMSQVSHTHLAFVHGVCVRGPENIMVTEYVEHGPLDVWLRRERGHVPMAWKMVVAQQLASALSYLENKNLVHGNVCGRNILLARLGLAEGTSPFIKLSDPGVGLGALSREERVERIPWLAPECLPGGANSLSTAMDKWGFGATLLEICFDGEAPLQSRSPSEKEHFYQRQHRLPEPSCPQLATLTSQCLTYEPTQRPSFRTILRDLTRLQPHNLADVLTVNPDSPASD
In short: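 The construct was human TYK2 G556–D888 fused to the NFkB DNA-binding domain and expressed in HEK293 cells; unpurified extract was incubated with compound and liganded beads for 1 hour at room temperature.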

Tyk2 kinase domain (DH1) = Tyk2 kinase domain (DH1) (Homo sapiens (Human), UniProt P29597); assay: Tyk2 Radioactive Kinase Assay; type: biochemical; conditions: compound at 10 μM; ATP 10 μM; read-out: Tyk2 JH1% Inhibition @ 10 μM
Chain of Tyk2 kinase domain (DH1) (P29597 897-1176): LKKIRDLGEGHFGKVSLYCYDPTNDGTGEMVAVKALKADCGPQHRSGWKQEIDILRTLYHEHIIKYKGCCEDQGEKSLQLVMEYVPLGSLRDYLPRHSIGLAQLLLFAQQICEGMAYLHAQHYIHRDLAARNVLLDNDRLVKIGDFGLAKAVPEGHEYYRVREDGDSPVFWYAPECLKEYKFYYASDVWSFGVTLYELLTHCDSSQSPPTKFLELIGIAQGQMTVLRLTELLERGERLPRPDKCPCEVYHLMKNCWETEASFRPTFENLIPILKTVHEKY
In short: as §1

[2] = target: JAK2/JAK2 homdimeric complex (Homo sapiens (Human), UniProt O60674); assay: GM-CSF Induced pSTAT5 in Human PBMC; type: cell-based; conditions: GM-CSF 5 ng/mL for 20 minutes, pSTAT5 by MSD, read-out: PBMC_GMCSF_pSTAT5 IC50
Chain of JAK2/JAK2 homdimeric complex (O60674 whole entry): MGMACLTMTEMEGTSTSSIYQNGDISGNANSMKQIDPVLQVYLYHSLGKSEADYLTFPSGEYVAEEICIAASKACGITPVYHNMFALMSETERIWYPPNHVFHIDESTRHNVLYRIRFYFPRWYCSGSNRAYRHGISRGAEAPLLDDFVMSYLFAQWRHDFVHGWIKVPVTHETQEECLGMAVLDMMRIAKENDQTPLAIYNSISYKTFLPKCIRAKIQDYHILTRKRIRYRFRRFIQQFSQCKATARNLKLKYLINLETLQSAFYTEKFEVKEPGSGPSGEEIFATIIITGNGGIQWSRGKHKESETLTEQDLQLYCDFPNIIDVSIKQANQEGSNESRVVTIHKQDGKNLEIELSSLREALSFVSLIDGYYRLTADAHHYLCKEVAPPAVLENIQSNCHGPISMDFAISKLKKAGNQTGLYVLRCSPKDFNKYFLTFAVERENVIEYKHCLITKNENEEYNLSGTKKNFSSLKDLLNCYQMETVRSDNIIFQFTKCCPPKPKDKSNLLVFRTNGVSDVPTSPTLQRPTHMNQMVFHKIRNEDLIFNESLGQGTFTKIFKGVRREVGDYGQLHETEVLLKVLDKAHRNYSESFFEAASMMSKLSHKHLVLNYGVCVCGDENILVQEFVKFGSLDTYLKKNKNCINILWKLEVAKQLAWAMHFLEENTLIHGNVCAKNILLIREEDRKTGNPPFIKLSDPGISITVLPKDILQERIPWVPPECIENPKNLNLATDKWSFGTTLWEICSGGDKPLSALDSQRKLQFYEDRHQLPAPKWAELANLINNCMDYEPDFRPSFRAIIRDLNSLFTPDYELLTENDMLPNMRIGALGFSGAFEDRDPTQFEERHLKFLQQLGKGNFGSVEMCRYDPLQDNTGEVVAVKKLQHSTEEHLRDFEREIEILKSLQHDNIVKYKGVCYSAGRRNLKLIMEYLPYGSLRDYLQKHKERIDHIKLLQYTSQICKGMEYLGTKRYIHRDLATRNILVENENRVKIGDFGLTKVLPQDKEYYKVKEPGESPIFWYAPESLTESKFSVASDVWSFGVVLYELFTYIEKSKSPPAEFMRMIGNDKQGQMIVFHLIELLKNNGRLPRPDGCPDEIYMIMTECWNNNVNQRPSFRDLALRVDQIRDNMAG
Chain of JAK2/JAK2 homdimeric complex (P32927 17-897 partner): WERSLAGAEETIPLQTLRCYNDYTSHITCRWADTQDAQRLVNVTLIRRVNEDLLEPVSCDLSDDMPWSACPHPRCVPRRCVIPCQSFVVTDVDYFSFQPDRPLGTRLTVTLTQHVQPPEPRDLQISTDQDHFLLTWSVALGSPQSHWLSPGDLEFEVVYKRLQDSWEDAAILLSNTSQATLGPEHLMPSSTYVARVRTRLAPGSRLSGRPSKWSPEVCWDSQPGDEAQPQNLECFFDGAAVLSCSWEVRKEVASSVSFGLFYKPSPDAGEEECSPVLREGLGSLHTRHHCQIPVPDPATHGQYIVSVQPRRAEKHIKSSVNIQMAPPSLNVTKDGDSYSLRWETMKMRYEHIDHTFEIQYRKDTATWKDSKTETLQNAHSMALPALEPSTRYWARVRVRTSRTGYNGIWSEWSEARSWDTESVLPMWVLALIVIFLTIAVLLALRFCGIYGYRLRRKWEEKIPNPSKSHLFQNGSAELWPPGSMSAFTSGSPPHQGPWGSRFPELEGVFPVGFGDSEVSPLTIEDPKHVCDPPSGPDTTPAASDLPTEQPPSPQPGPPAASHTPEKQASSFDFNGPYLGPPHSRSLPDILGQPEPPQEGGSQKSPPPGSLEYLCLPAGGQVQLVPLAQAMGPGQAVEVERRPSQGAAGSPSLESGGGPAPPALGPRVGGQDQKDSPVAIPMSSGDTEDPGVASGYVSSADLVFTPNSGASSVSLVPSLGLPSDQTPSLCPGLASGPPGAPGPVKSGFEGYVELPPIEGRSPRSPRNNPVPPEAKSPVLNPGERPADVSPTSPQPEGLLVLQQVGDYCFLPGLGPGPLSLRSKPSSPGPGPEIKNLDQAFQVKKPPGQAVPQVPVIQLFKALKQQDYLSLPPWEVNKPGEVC

[3] = target: Tyk2/JAK2 (heterodimeric complex) (Homo sapiens (Human), UniProt P29597); assay: IL-12 Induced pSTAT4 in Human PBMC; type: cell-based; conditions: 1.7 ng/mL IL-12
Chain of Tyk2/JAK2 (heterodimeric complex) (P29597 whole entry, other chains not shown): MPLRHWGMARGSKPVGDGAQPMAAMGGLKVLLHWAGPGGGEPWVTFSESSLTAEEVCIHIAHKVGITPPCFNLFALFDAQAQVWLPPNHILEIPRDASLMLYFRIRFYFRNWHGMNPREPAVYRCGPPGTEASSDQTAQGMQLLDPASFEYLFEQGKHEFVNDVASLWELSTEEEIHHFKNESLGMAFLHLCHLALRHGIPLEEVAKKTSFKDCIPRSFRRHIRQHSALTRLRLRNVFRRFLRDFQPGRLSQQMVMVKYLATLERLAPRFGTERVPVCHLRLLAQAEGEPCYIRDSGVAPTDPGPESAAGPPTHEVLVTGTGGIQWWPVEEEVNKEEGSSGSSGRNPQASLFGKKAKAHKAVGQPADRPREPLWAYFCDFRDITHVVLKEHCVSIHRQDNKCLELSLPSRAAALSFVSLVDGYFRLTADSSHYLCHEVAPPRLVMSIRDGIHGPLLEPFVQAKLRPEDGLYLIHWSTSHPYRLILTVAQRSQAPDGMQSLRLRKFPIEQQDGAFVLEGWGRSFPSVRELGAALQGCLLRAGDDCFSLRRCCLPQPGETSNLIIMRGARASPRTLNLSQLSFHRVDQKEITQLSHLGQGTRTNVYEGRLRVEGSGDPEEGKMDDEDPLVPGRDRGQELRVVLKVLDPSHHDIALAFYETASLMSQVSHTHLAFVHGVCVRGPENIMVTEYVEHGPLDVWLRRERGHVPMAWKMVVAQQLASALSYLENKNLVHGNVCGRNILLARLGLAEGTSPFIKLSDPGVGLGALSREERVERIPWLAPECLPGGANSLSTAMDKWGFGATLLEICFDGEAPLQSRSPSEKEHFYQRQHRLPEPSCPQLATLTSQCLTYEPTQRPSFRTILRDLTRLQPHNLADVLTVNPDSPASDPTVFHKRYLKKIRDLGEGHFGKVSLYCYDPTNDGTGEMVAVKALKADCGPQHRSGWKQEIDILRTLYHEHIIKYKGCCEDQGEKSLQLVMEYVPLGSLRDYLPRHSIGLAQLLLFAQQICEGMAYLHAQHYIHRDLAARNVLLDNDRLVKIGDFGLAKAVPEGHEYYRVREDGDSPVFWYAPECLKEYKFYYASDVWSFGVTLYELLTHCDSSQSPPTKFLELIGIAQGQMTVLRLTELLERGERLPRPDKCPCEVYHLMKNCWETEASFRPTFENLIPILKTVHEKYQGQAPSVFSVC
Source text: The IL-12 Induced pSTAT4 assay evaluates the inhibition of IL-12 induced STAT4 phophorylation mediated by Tyk2/JAK2 (heterodimeric complex).

Chain of JAK2 kinase domain (JH1) (O60674 849-1124): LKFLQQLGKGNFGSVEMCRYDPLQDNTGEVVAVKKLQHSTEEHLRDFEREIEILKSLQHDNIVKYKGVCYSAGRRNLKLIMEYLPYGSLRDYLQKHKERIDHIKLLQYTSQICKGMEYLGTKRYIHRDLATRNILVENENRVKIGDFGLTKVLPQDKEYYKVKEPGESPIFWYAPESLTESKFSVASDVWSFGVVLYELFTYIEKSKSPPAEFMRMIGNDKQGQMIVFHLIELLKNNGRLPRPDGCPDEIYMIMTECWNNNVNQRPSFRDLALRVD

SMILES | inhibition at 10 µM (JAK2 kinase domain (JH1)) [%] | Kd [1] [nM] | inhibition at 10 µM (Tyk2 kinase domain (DH1)) [%] | IC50 [2] [nM] | IC50 [3] [nM]
CNc1cc(Nc2cccn(CCOC)c2=O)nc2c(C(=O)NC3CCC3)cnn12 [I-269] | < 50 | < 0.2 | < 50 | > 50000 | < 100
CNc1cc(-c2cn(C(C)C)c3ncc(Cl)cc23)nc2c(C(N)=O)cnn12 [I-272, 5-(5-chloro-1-isopropyl-1H-pyrrolo[2,3-b]pyridin-3-yl)-7-(methylamino) pyrazolo[1,5-a]pyrimidine-3-carboxamide] | < 50 | < 0.2 | < 50 | > 12500 | < 100
CNc1cc(Nc2cc(F)cnc2OC2CC2)nc2c(C(=O)NC3CC3)cnn12 [I-274] | < 50 | < 0.2 | < 50 | > 12500 | < 100
CNc1cc(Nc2cc(F)cnc2OC2CC2)nc2c(C(=O)N[C@H]3C[C@H]3F)cnn12 [I-275] | < 50 | < 0.2 | < 50 | > 50000 | < 100
CNc1cc(Nc2cc(F)cnc2OC2CC2)nc2c(C(=O)NC3CCC3)cnn12 [I-276] | < 50 | < 0.2 | < 50 | > 50000 | < 100
CNc1cc(Nc2cc(C)cnc2OC2CC2)nc2c(C(=O)NC3CC3)cnn12 [I-277] | < 50 | 0.2 to 1 | < 50 | > 50000 | 100 to 500
CNc1cc(Nc2cc(C)cnc2OCCOC)nc2c(C(=O)NC3CC3)cnn12 [I-281] | < 50 | 0.2 to 1 | < 50 | > 2500 | 100 to 500
CNc1cc(Nc2cc(C)cnc2OCCOC)nc2c(C(=O)NC3CCC3)cnn12 [I-282] | < 50 | 0.2 to 1 | < 50 | > 2500 | 100 to 500
CNc1cc(Nc2cc(F)cnc2OC)nc2c(C(=O)NCC(C)(C)CO)cnn12 [I-283] | < 50 | < 0.2 | < 50 | > 50000 | < 100
[2H]C([2H])([2H])Oc1ncc(F)cc1Nc1cc(NC)n2ncc(C(=O)NC3CC3)c2n1 [I-284] | < 50 | < 0.2 | < 50 | > 12500 | < 100
CNc1cc(Nc2cc(F)cnc2OCCOC)nc2c(C(=O)N[C@H]3C[C@H]3F)cnn12 [I-285] | < 50 | < 0.2 | < 50 | > 50000 | < 100
[2H]C([2H])([2H])Oc1ncc(F)cc1Nc1cc(NC)n2ncc(C(=O)NC3CCC3)c2n1 [I-288] | < 50 | < 0.2 | < 50 | > 2500 | < 100
CNc1cc(Nc2cc(F)cnc2OCCOC)nc2c(C(=O)NC3CCC3)cnn12 [I-290] | < 50 | 0.2 to 1 | < 50 | > 2500 | < 100
CNc1cc(Nc2cccn(-c3nc(C)c(C)s3)c2=O)nc2c(C(=O)N[C@H]3C[C@H]3F)cnn12 [I-292] | < 50 | 0.2 to 1 | < 50 | > 2500 | < 100
CNc1cc(Nc2cccn(-c3ccn(C)n3)c2=O)nc2c(C(=O)NC3CC3)cnn12 [I-294] | < 50 | 0.2 to 1 | < 50 | > 12500 | < 100
CNc1cc(Nc2cccn(-c3cnn(C)c3)c2=O)nc2c(C(=O)NC3CC3)cnn12 [I-295] | < 50 | < 0.2 | < 50 | > 50000 | < 100
CNc1cc(Nc2cccn(-c3cnn(C)c3)c2=O)nc2c(C(=O)N[C@H]3C[C@H]3F)cnn12 [I-296] | < 50 | < 0.2 | < 50 | > 50000 | < 100
CNc1cc(Nc2cccn(-c3cncc(C)c3)c2=O)nc2c(C(=O)NC3CCC3)cnn12 [I-303] | < 50 | < 0.2 | < 50 | > 50000 | < 100
CNc1cc(Nc2cccn(C3CCCCC3)c2=O)nc2c(C(=O)N[C@H]3C[C@H]3F)cnn12 [I-305] | < 50 | < 0.2 | < 50 | > 12500 | < 100

SMILES | inhibition at 10 µM (JAK2 kinase domain (JH1)) [%] | Kd [1] [nM] | inhibition at 10 µM (Tyk2 kinase domain (DH1)) [%] | IC50 [2] [nM] | IC50 [3] [nM]
CNc1cc(Nc2cc(Cl)cn(-c3ccn(C)n3)c2=O)nc2c(C(=O)N[C@H]3C[C@H]3F)cnn12 [I-309] | < 50 | < 0.2 | < 50 | > 12500 | < 100
CNc1cc(Nc2cc(Cl)cn(-c3ccn(C)n3)c2=O)nc2c(C(=O)NC3CC3)cnn12 [I-310] | < 50 | < 0.2 | < 50 | > 2500 | < 100
CNc1cc(Nc2cc(Cl)cn(-c3cnn(C)c3)c2=O)nc2c(C(=O)NC3CC3)cnn12 [I-311] | < 50 | < 0.2 | < 50 | > 12500 | < 100
CNc1cc(Nc2cc(Cl)cn(-c3cnn(C)c3)c2=O)nc2c(C(=O)N[C@H]3C[C@H]3F)cnn12 [I-312] | < 50 | < 0.2 | < 50 | > 12500 | < 100
CNc1cc(Nc2cc(Cl)cn(-c3cc(C)n(C)n3)c2=O)nc2c(C(=O)NC3CC3)cnn12 [I-314] | < 50 | < 0.2 | < 50 | > 2500 | < 100
CNc1cc(Nc2cc(Cl)cn(-c3cc(C)n(C)n3)c2=O)nc2c(C(=O)N[C@H]3C[C@H]3F)cnn12 [I-315] | < 50 | < 0.2 | < 50 | > 12500 | < 100
CNc1cc(Nc2cc(Cl)cn(-c3ccnc(C)n3)c2=O)nc2c(C(=O)N[C@H]3C[C@H]3F)cnn12 [I-317] | < 50 | < 0.2 | < 50 | > 2500 | < 100
CNc1cc(Nc2cc(Cl)cn(-c3cnc(C(=O)N(C)C)cn3)c2=O)nc2c(C(=O)NC3CC3)cnn12 [I-318] | < 50 | < 0.2 | < 50 | > 2500 | < 100
CNc1cc(Nc2cc(Cl)cn(-c3cnc(C(=O)N(C)C)cn3)c2=O)nc2c(C(=O)N[C@H]3C[C@H]3F)cnn12 [I-319] | < 50 | < 0.2 | < 50 | > 2500 | < 100
[2H]C([2H])([2H])Oc1ncccc1Nc1cc(NC)n2ncc(C(=O)N[C@H]3C[C@H](O)C3)c2n1 [I-321, N-((1r, 3r)-3-hydroxycyclobutyl)-5-((2-(methoxy-d3)pyridin-3-yl)amino)-7-(methylamino)pyrazolo[1,5-a]pyrimidine-3-carboxamide] | < 50 | < 0.2 | < 50 | > 2500 | < 100
CNc1cc(Nc2cc(Cl)cn(-c3ncc(C)s3)c2=O)nc2c(C(=O)N[C@H]3C[C@H]3F)cnn12 [I-323] | < 50 | < 0.2 | < 50 | > 2500 | < 100
CNc1cc(Nc2cc(Cl)cn(-c3cnn(C4CC4)c3C)c2=O)nc2c(C(=O)N[C@H]3C[C@H]3F)cnn12 [I-326] | < 50 | < 0.2 | < 50 | > 50000 | < 100
CNc1cc(Nc2cccn(C3CCOCC3)c2=O)nc2c(C(=O)NC3CC3)cnn12 [I-329] | < 50 | < 0.2 | < 50 | > 2500 | < 100
CNc1cc(Nc2cccn(C3CCOCC3)c2=O)nc2c(C(=O)N[C@H]3C[C@H]3F)cnn12 [I-330] | < 50 | < 0.2 | < 50 | > 2500 | < 100
CNc1cc(Nc2cc(Cl)cn(-c3ccn(C4CC4)n3)c2=O)nc2c(C(=O)NC3CC3)cnn12 [I-331] | < 50 | < 0.2 | < 50 | > 12500 | < 100
CNc1cc(Nc2cc(Cl)cn(-c3ccn(C4CC4)n3)c2=O)nc2c(C(=O)N[C@H]3C[C@H]3F)cnn12 [I-332] | < 50 | < 0.2 | < 50 | > 2500 | < 100
CNc1cc(Nc2cc(Cl)cn(-c3ccc(C4CC4)nn3)c2=O)nc2c(C(=O)NC3CC3)cnn12 [I-333] | < 50 | < 0.2 | < 50 | > 12500 | < 100
CNc1cc(Nc2cc(Cl)cn(-c3ccc(C4CC4)nn3)c2=O)nc2c(C(=O)N[C@H]3C[C@H]3F)cnn12 [I-334] | < 50 | < 0.2 | < 50 | > 50000 | < 100
